Experimental data published in patent EP2601963B1, “N-ISOVALEROYL-L-GLUTAMYL-L-TRYPTOPHAN AS AN AGENT INHIBITING THE FORMATION OF ULCERS IN THE STOMACH AND THE DUODENUM” (Obshestvo S Ogranichennoj Otvetstvennostju "CytoNIR", priority 2010, dated 2015).

Key:
[1] = Acute toxicity, single intramuscular dose; type: in vivo, white outbred male mice; settings: single-dose administration, dose exceeding the recommended therapeutic dose more than 100 times
Experimental: Total toxicity of N-isovaleroyl-L-glutamyl-L-tryptophan was studied in accordance with the requirements of The Handbook of the Experimental (non-clinical) Studies of Novel Pharmaceutical Substances (2000): single dose acute toxicity and sub-acute and chronic toxicity during long-term administration of the dipeptide.
Acute toxicity testing was conducted on 60 white outbred male mice with 20 - 23 g body weights. The animals were divided into 6 equal groups. Single intramuscular doses of the medication were administered to the animals in the amount of 0.1 ml in the following doses: 1 mg/kg, 5 mg/kg, 10 mg/kg, and 20 mg/kg in sterile 0.9 % NaCl solution. The animals in the control group were receiving the same amounts of 0.9 % NaCl solution.

[2] = test system: stress-induced gastric ulcers; assay: Water-immersion stress model: gastric lesions, preventive treatment; type: in vivo, male Wistar rats; design: key to GA1 (gastroprotective activity calculated for number of lesions): GA1 = PI of control group / PI of treated group; key to GA2 (gastroprotective activity calculated for lesion size): GA2 = UI of control group / UI of treated group; key to Pauls Index: PI = mean lesions per group × % animals with lesions / 100; key to Ulcer Index: UI = mean lesion area in group × % animals with lesions / 100
Experimental: All studies were conducted on male Wistar rats weighing 220 ± 20 g, obtained from Rappolovo nursery (Leningrad oblast). For 14 days prior to the experiment, the animals were held in isolation. The animals were handled in accordance with the European Convention for the Protection of Vertebrate Animals used for Experimental and Other Scientific Purposes (Strasburg, 1986). The animals were held in standard plastic cages and fed a standard diet of PK120-3 (granulated feed in accordance with order # 1179 M3 USSR 10/10/1983) with a free access to water.
In each series, the animals were divided into experimental and control groups with 10 rats per group. The animals in the experimental groups were orally administered the claimed preparation or a comparator drug, and the control group animals received distilled water in the same amount.
The experimental animals were divided into 5 groups, 10 animals each. The animals received the following therapy: • control group received distilled water per os; • experimental group 1 received 0.1 mkg/kg N-isovaleroyl-L-glutamyl-L-tryptophan; • experimental group 2 received 10 mkg/kg N-isovaleroyl-L-glutamyl-L-tryptophan; • experimental group 3 received 200 mkg/kg of the comparator drug Sucralfate; • experimental group 4 received 50 mkg/kg of the comparator drug Misoprostol;
The experiment was conducted as follows: • The proposed drug, comparator drugs, and distilled water were administered once daily over 7 days, and on the day of the ulcerogenic stress induction one hour prior to the stress.
The rats deprived of food for 18 hrs. were placed into special cases and immersed in water vertically to the level of their xyphoids. The animals were held in this position for 5 hrs. at 23° C water temperature. After that, the animals were removed from the experiment.
Animals' body weight changes were monitored throughout the experiment. The experimental animals were then sacrificed by decapitation, and their blood was collected in test tubes. The stomachs were extracted, dissected along the major curve, rinsed with cold saline solution, and the mucosa was carefully examined through a magnifying glass under bright lights. The mucosa was inspected for color, the presence of hyperemia and its intensity. The number of lesions, which were differentiated into small round (less than 1 mm), linear, and large lesions (more than 1mm) and the size of the area they covered were calculated. The average number of lesions per one animal in a group and the percentage of animals with ulcers were also calculated. Pauls Index (PI) was used as an integral indicator of the number of lesions and was calculated as follows: • PI = average number of lesions in a group x % of animals with lesions/100 [Pauls F., Wick A.M.,Mac. Key E.M. et al. An assau method for anti ulcer substances // Gastroenterology.- 1947. #8.- p.p.774 - 782]. Ulcer index UI was calculated as: UI = average lesion area size in the group x % of animals with lesions/100; gastroprotective activity GA1 was calculated as: GA1 = PI of the control group/PI of the experimental group, GA2 = UI of the control group/UI of the experimental group. The proposed drug was considered active when GA ≥ 2.

Substance: N-isovaleroyl-L-glutamyl-L-tryptophan [VGT preparation]
- toxic reactions [1]: did not cause any toxic reactions
- # Lesions ([2]; 0.1 mkg/kg + stress): 15.4 ± 2.1
- % Animals with Ulcers ([2]; 0.1 mkg/kg + stress): 90%
- GA1 (gastroprotective activity calculated for number of lesions) ([2]; 0.1 mkg/kg + stress): 1.59
- GA2 (gastroprotective activity calculated for lesion size) ([2]; 0.1 mkg/kg + stress): 2.58
- Large round Amt. ([2]; 0.1 mkg/kg + stress): 6.9 ± 1.4
- Large round Size ([2]; 0.1 mkg/kg + stress): 4.4 ± 1.1
- Lesion Size ([2]; 0.1 mkg/kg + stress): 8.7 ± 2.0
- Linear Amt. ([2]; 0.1 mkg/kg + stress): 1.5 ± 0.7
- Linear Size ([2]; 0.1 mkg/kg + stress): 2.4 ± 1.0
- Pauls Index ([2]; 0.1 mkg/kg + stress): 13.9
- Small round Amt. ([2]; 0.1 mkg/kg + stress): 7.0 ± 1.4
- Small round Size ([2]; 0.1 mkg/kg + stress): 1.9 ± 0.4
- Total Amt. ([2]; 0.1 mkg/kg + stress): 15.4 ± 2.1
- Total Size ([2]; 0.1 mkg/kg + stress): 8.7 ± 2.0
- Ulcer Index ([2]; 0.1 mkg/kg + stress): 7.83
- # Lesions ([2]; 10 mkg/kg + stress): 16.3 ± 1.5
- % Animals with Ulcers ([2]; 10 mkg/kg + stress): 100%
- GA1 (gastroprotective activity calculated for number of lesions) ([2]; 10 mkg/kg + stress): 1.36
- GA2 (gastroprotective activity calculated for lesion size) ([2]; 10 mkg/kg + stress): 2.08
- Lesion Size ([2]; 10 mkg/kg + stress): 9.7 ± 1.2
- Pauls Index ([2]; 10 mkg/kg + stress): 16.3
- Ulcer Index ([2]; 10 mkg/kg + stress): 9.7
- Large round Amt. ([2]; 10.0 mkg/kg + stress): 5.7 ± 1.1
- Large round Size ([2]; 10.0 mkg/kg + stress): 3.4 ± 0.7
- Linear Amt. ([2]; 10.0 mkg/kg + stress): 1.4 ± 0.3
- Linear Size ([2]; 10.0 mkg/kg + stress): 3.9 ± 1.4
- Small round Amt. ([2]; 10.0 mkg/kg + stress): 9.2 ± 1.5
- Small round Size ([2]; 10.0 mkg/kg + stress): 2.5 ± 0.4
- Total Amt. ([2]; 10.0 mkg/kg + stress): 16.3 ± 1.5
- Total Size ([2]; 10.0 mkg/kg + stress): 9.7 ± 1.2
- size of lesions smaller than in the control group animals ([2]; stress, both doses): 2.1 - 2.6 times
- reduced the size of large lesions ([2]; stress, depending on the dose (0.1 mkg/kg by Table 1)): 2.7 times
- reduced the size of large lesions ([2]; stress, depending on the dose (10 mkg/kg by Table 1)): 3.4 times
